Measured values reported in patent publication US20250170101A1, “MONOACYLGLYCEROL LIPASE INHIBITORS AND USE THEREOF FOR THE TREATMENT AND MANAGEMENT OF PAIN AND RELATED CONDITIONS” (Psy Therapeutics, Inc., priority 2021, published 2025).
Like-named read-outs stand apart in the source and are kept apart here.

Tests used:
[1] = Plasma and brain concentrations after single intraperitoneal administration, Examples 23 and 24; assay type: in vivo, male C57BL/6 mice; conditions: male, C57BL/6, mouse, IP 20 mg/kg
Procedure: This experiment was performed to determine plasma pharmacokinetics and estimate 2-AG levels in male C57BL/6 mice brain following a single intraperitoneal administration of Compound-74 (Dose: 5, 15, 50 and 150 mg/kg). The experiment was repeated at 150 mg/kg on 3 separate test dates to obtain the data shown in FIG. 1A (plasma and brain concentration of Compound 74 30 minutes after IP injection), and on the first and third test dates to obtain the data shown in FIG. 1B (brain concentration of 2-AG30 minutes after IP injection of Compound 74). • Compound 74, Molecular Wt.: 405.46 (Freebase), % Purity: Considered 100%. • Formulation: DMSO • Dose: 5, 15, 50 and 150 mg/kg • Dose volume: 2 mL/kg • Feeding regimen: freely fed • Groups:
Study Design: A total of thirty male mice were used into the study and divided in to five groups with six mice in each group (n=6 mice/group/treatment design). Animals in Group 1 to Group 4 were administered intraperitoneally with Compound 74 solution formulation at 5, 15, 50 and 150 mg/kg dose, respectively. Animals in Group 5 were administered intraperitoneally with vehicle at 2 mL/kg dose. Blood and brain samples were collected at 0.5 h post dose. Mice were euthanized by cervical dislocation and brain samples were dissected rapidly and snap frozen in liquid nitrogen, weighed and homogenized in 2 mL of acetonitrile containing 2-AGd5. Blood samples were centrifuged at 4000 rpm for 10 minutes at 4° C. Plasma was harvested and separated in pre-labeled tubes. All samples were stored below −70° C. until bioanalysis.
Analysis: Brain samples were processed for 2-AG estimation. 2-AG levels were the detected values. Plasma concentrations were determined by fit for purpose LC-MS/MS method. LLOQ: 5.09 ng/mL (Plasma and brain)
This experiment was performed to determine plasma pharmacokinetics and estimate 2-AG levels in male C57BL/6 mice brain following a single intraperitoneal administration of Compound-473 (Dose: 20 mg/kg). • Compound 473, Molecular Wt.: 463.41 (Freebase), % Purity: >98%. • Formulation: DMSO • Dose: 20 mg/kg • Dose volume: 10 mL/kg • Feeding regimen: Food and water ad libitum • Groups:
Study Design: A total of twelve C57BL/6 male mice were used in this study. Six animals were administered intraperitoneally with solution formulation of PSY-05-00473-002 at 20 mg/kg dose. Six animals were administered vehicle (5% NMP, 5% Solutol HS15 and 90% Normal saline) intraperitoneally at 10 mL/kg dose volume. Blood samples (approximately 60 μL) were collected under light isoflurane anesthesia from a set of six mice at 0.5 h. Plasma was harvested by centrifugation of blood and stored at −70±10° C. until analysis. After blood collection, mice were euthanized by cervical dislocation and brain samples were dissected rapidly and snapped frozen in liquid nitrogen and stored at −80. To homogenize, removed brain samples from the freezer, were divided into two equal hemispheres and weighed while still in frozen condition, and begun homogenization/extraction procedure without allowing the brain samples to thaw. One part is used for PK estimation and the other part is used for 2-AG estimation.
Analysis: For PK estimation, brain samples were homogenized in 2 volumes of PBS of brain weight. Total homogenate volume was three times of the brain weight. For 2-AG estimation, the frozen brain samples were homogenized in 2 mL acetonitrile containing 2-AGd5 (8.88 nmoles) will be incubated overnight at −20° C. to precipitate proteins. Blood samples were centrifuged at 10000 rpm for 10 minutes at 4° C. All samples were stored below −70° C. until bioanalysis. Plasma and brain homogenate samples were quantified by fit-for-purpose LC-MS/MS method (LLOQ: 1.02 ng/mL for plasma and 2.03 ng/mL for brain).

MAGL enzyme = target: T1, MAGL enzyme (Homo sapiens, UniProt Q99685); test: MAGL reversible inhibition assay (washout), Example 22; assay type: biochemical; set-up: % MAGL activity returning after washout: concentration or dose not given beside the values
T1 sequence (Q99685 1-303): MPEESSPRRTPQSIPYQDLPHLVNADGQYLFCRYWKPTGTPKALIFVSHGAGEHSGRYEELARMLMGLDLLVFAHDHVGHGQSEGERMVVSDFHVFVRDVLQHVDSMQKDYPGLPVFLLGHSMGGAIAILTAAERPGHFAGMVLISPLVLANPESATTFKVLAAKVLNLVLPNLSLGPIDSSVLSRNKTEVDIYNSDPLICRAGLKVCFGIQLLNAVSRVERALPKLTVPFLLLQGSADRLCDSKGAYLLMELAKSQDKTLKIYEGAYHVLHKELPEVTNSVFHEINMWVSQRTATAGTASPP

O=C(c1cc(O)ccc1F)N1CC2(CC(n3cc(C(F)(F)F)c(-c4ccccc4F)n3)C2)C1 (single isomer, unassigned) [Compound 473, (2-fluoro-5-hydroxyphenyl){6-[3-(o-fluorophenyl)-4-(trifluoromethyl)-1-pyrazolyl]-2-aza-2-spiro[3.3]heptyl}methanone]
concentration at 0.5 h ([1]; brain, read-out: Brain Concentration (ng/g), Mean): 2630 ng/g | Kp at 0.5 h ([1]; brain/plasma, read-out: Brain/Plasma Ratio (kp), Mean): 1.44 | concentration at 0.5 h ([1]; plasma, read-out: Plasma Concentration (ng/mL), Mean): 1820 ng/mL | degree to which MAGL enzymatic activity returned following washout of test compounds (MAGL enzyme; pre-washout compound concentration 1 μM): 41 | % MAGL activity returning after washout (MAGL enzyme; relative to control (no inhibitor before washout), immediately following 30 minute washout): <50%
